Assay results taken from patent US9546156B2, “N-bicyclic aryl,N'-pyrazolyl urea, thiourea, guanidine cyanoguanidine compounds as TrkA kinase inhibitors” (Array BioPharma Inc., priority 2012, dated 2017).

Legend:
Assay in all cases: Off-target kinase profiling (KinaseProfiler)
Type in all cases: biochemical
Conditions in all cases: 10 μM, ATP near Km
MSK1 = target: T1, MSK1 (Homo sapiens, UniProt O75582)
T1 construct: purchased Millipore, Inc. (KinaseProfiler service)
Method: (§1) A representative compound (Example 16) of the invention was tested for off-target kinase activity at a concentration of 10 μM by Millipore, Inc. in their KinaseProfiler™ service against all the kinases available in their full kinase panel. The compound was run in duplicate at a concentration of ATP near the Km for each individual kinase according to Millipore's specifications. The results are shown in Table B. Data are reported as percent of control (POC) and are the average of the two replicates.

FGFR2 = target: T2, FGFR2 (Homo sapiens, UniProt P21802)
T2 construct: purchased Millipore, Inc. (KinaseProfiler service)
Method: as §1

ITK = target: T3, ITK (Homo sapiens, UniProt Q08881)
T3 construct: purchased Millipore, Inc. (KinaseProfiler service)
Method: as §1

CSK = target: T4, CSK (Homo sapiens, UniProt P41240)
T4 construct: purchased Millipore, Inc. (KinaseProfiler service)
Method: as §1

CLK2 = target: T5, CLK2 (Homo sapiens, UniProt P49760)
T5 construct: purchased Millipore, Inc. (KinaseProfiler service)
Method: as §1

CAMK1d = target: T6, CAMK1d (Homo sapiens, UniProt Q8IU85)
T6 construct: purchased Millipore, Inc. (KinaseProfiler service)
Method: as §1

PAK2 = target: T7, PAK2 (Homo sapiens, UniProt Q13177)
T7 construct: purchased Millipore, Inc. (KinaseProfiler service)
Method: as §1

CAMK1 = target: T8, CAMK1 (Homo sapiens, UniProt Q14012)
T8 construct: purchased Millipore, Inc. (KinaseProfiler service)
Method: as §1

TBK1 = target: T9, TBK1 (Homo sapiens, UniProt Q9UHD2)
T9 construct: purchased Millipore, Inc. (KinaseProfiler service)
Method: as §1

AKT3 = target: T10, AKT3 (Homo sapiens, UniProt Q9Y243)
T10 construct: purchased Millipore, Inc. (KinaseProfiler service)
Method: as §1

WNK3 = target: T11, WNK3 (Homo sapiens, UniProt Q9BYP7)
T11 construct: purchased Millipore, Inc. (KinaseProfiler service)
Method: as §1

IKKalpha = target: T12, IKKalpha (Homo sapiens, UniProt O15111)
T12 construct: purchased Millipore, Inc. (KinaseProfiler service)
Method: as §1

CDK2/cyclinA = target: T13, CDK2/cyclinA (Homo sapiens, UniProt P24941)
T13 construct: purchased Millipore, Inc. (KinaseProfiler service)
Method: as §1

NEK3 = target: T14, NEK3 (Homo sapiens, UniProt P51956)
T14 construct: purchased Millipore, Inc. (KinaseProfiler service)
Method: as §1

Fer = target: T15, Fer (Homo sapiens, UniProt P16591)
T15 construct: purchased Millipore, Inc. (KinaseProfiler service)
Method: as §1

PKCdelta = target: T16, PKCdelta (Homo sapiens, UniProt Q05655)
T16 construct: purchased Millipore, Inc. (KinaseProfiler service)
Method: as §1

Mer = target: T17, Mer (Homo sapiens, UniProt Q12866)
T17 construct: purchased Millipore, Inc. (KinaseProfiler service)
Method: as §1

EphA2 = target: T18, EphA2 (Homo sapiens, UniProt P29317)
T18 construct: purchased Millipore, Inc. (KinaseProfiler service)
Method: as §1

AKT2 = target: T19, AKT2 (Homo sapiens, UniProt P31751)
T19 construct: purchased Millipore, Inc. (KinaseProfiler service)
Method: as §1

TrkB = target: T20, TrkB (Homo sapiens, UniProt Q16620)
T20 construct: purchased Millipore, Inc. (KinaseProfiler service)
Method: as §1

AMPK(A1/B1/G1) = target: T21, AMPK(A1/B1/G1) (Homo sapiens, UniProt Q13131)
T21 construct: purchased Millipore, Inc. (KinaseProfiler service)
Method: as §1

Met = target: T22, Met (Homo sapiens, UniProt P08581)
T22 construct: purchased Millipore, Inc. (KinaseProfiler service)
Method: as §1

Txk = target: T23, Txk (Homo sapiens, UniProt P42681)
T23 construct: purchased Millipore, Inc. (KinaseProfiler service)
Method: as §1

DYRK2 = target: T24, DYRK2 (Homo sapiens, UniProt Q92630)
T24 construct: purchased Millipore, Inc. (KinaseProfiler service)
Method: as §1

PDGFRalpha = target: T25, PDGFRalpha (Homo sapiens, UniProt P16234)
T25 construct: purchased Millipore, Inc. (KinaseProfiler service)
Method: as §1

MKNK2 = target: T26, MKNK2 (Homo sapiens, UniProt Q9HBH9)
T26 construct: purchased Millipore, Inc. (KinaseProfiler service)
Method: as §1

JNK1alpha1 = target: T27, JNK1alpha1 (Homo sapiens, UniProt P45983)
T27 construct: purchased Millipore, Inc. (KinaseProfiler service)
Method: as §1

Fms = target: T28, Fms (Homo sapiens, UniProt P07333)
T28 construct: purchased Millipore, Inc. (KinaseProfiler service)
Method: as §1

IKKbeta = target: T29, IKKbeta (Homo sapiens, UniProt O14920)
T29 construct: purchased Millipore, Inc. (KinaseProfiler service)
Method: as §1

SGK2 = target: T30, SGK2 (Homo sapiens, UniProt Q9HBY8)
T30 construct: purchased Millipore, Inc. (KinaseProfiler service)
Method: as §1

CDK2/cyclinE = target: T31, CDK2/cyclinE (Homo sapiens, UniProt P24941)
T31 construct: purchased Millipore, Inc. (KinaseProfiler service)
Method: as §1

Ret = target: T32, Ret (Homo sapiens, UniProt P07949)
T32 construct: purchased Millipore, Inc. (KinaseProfiler service)
Method: as §1

IR Activated = target: T33, IR Activated (Homo sapiens, UniProt P06213)
T33 construct: purchased Millipore, Inc. (KinaseProfiler service)
Method: as §1

TAO3 = target: T34, TAO3 (Homo sapiens, UniProt Q9H2K8)
T34 construct: purchased Millipore, Inc. (KinaseProfiler service)
Method: as §1

TNK2 = target: T35, TNK2 (Homo sapiens, UniProt Q07912)
T35 construct: purchased Millipore, Inc. (KinaseProfiler service)
Method: as §1

GRK6 = target: T36, GRK6 (Homo sapiens, UniProt P43250)
T36 construct: purchased Millipore, Inc. (KinaseProfiler service)
Method: as §1

CDK3/cyclinE = target: T37, CDK3/cyclinE (Homo sapiens, UniProt Q00526)
T37 construct: purchased Millipore, Inc. (KinaseProfiler service)
Method: as §1

Flt4 = target: T38, Flt4 (Homo sapiens, UniProt P35916)
T38 construct: purchased Millipore, Inc. (KinaseProfiler service)
Method: as §1

MAPKAP-K3 = target: T39, MAPKAP-K3 (Homo sapiens, UniProt Q16644)
T39 construct: purchased Millipore, Inc. (KinaseProfiler service)
Method: as §1

SGK1 = target: T40, SGK1 (Homo sapiens, UniProt O00141, S422D)
T40 construct: purchased Millipore, Inc. (KinaseProfiler service)
Method: as §1

MSK2 = target: T41, MSK2 (Homo sapiens, UniProt O75676)
T41 construct: purchased Millipore, Inc. (KinaseProfiler service)
Method: as §1

T32 sequence (P07949 29-1114): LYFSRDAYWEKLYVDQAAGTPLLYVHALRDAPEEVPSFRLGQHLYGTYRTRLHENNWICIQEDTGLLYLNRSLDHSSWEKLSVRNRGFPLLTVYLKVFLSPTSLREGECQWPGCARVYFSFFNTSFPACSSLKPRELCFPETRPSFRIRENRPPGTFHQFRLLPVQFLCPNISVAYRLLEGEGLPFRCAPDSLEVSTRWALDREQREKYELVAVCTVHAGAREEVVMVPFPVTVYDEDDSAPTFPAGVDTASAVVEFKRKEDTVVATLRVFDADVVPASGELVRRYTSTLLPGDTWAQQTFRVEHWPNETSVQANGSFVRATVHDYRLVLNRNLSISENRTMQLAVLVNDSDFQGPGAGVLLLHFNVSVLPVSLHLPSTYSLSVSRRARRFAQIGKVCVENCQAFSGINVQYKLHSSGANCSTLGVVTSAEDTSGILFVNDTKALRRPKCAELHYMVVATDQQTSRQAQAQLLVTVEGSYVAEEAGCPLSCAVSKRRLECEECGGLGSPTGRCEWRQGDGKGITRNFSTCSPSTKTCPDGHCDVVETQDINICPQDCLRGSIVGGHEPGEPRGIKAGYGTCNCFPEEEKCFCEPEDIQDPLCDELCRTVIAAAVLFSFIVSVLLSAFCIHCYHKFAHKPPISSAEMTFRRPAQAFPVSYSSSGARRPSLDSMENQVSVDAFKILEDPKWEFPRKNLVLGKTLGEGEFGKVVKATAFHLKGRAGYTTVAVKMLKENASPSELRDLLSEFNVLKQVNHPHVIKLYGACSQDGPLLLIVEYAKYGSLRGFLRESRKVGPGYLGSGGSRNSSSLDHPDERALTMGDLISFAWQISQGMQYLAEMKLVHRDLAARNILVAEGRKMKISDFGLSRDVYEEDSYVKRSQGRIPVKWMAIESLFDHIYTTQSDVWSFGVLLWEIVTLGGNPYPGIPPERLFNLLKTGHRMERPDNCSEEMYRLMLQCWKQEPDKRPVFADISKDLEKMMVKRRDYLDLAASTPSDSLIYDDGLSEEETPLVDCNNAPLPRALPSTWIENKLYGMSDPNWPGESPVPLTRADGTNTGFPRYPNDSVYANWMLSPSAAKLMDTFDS
T41 sequence (O75676 whole entry): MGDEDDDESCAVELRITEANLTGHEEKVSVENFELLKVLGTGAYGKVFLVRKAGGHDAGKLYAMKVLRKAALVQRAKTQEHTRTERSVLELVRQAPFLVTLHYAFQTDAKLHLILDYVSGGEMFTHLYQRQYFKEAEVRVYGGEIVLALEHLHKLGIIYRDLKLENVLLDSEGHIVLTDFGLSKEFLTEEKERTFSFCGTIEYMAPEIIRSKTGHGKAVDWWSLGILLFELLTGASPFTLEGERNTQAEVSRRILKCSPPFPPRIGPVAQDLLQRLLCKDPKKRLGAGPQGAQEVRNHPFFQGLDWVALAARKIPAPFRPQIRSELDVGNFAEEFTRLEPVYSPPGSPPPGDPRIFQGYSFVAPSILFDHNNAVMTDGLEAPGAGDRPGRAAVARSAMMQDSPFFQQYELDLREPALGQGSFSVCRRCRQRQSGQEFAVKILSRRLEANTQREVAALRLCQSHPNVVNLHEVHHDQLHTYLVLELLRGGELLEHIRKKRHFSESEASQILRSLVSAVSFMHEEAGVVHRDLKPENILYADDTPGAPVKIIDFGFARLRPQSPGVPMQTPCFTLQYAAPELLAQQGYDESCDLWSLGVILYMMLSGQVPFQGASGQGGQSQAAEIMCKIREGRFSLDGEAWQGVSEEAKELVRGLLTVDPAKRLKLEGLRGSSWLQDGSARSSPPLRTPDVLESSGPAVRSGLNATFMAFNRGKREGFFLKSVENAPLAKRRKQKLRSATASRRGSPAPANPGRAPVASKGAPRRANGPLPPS
T5 sequence (P49760 whole entry): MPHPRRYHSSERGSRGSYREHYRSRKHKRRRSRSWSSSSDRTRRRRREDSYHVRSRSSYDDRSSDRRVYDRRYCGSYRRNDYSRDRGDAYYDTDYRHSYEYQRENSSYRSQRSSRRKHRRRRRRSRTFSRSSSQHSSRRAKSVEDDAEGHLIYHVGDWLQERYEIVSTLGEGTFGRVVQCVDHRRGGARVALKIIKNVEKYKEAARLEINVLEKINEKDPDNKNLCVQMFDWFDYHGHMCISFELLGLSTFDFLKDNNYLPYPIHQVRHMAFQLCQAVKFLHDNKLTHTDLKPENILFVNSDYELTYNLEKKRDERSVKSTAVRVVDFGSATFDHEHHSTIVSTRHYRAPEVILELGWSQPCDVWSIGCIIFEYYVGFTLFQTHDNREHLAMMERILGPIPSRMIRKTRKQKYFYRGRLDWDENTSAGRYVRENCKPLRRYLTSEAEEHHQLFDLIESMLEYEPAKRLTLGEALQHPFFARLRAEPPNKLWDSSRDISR
T33 sequence (P06213 1005-1310 limits assumed): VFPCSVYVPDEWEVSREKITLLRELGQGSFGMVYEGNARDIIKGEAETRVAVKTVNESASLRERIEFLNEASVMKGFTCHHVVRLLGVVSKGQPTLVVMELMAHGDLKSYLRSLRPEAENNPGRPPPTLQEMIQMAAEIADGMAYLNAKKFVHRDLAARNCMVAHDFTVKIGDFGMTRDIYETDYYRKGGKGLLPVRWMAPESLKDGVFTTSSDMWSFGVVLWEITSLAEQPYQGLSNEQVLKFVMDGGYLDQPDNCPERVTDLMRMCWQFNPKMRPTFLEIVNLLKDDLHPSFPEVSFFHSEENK
T4 sequence (P41240 whole entry): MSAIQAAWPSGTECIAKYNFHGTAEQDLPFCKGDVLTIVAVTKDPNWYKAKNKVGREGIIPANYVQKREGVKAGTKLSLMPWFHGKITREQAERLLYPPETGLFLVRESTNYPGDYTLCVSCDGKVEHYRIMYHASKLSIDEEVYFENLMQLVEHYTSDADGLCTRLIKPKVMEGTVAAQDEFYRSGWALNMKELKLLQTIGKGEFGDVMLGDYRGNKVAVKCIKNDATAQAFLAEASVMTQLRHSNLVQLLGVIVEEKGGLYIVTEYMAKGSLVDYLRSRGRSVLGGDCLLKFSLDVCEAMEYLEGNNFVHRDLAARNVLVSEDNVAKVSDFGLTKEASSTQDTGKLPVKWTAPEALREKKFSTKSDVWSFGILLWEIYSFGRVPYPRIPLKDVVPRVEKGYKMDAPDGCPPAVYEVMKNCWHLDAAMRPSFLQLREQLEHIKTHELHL
T29 sequence (O14920 whole entry): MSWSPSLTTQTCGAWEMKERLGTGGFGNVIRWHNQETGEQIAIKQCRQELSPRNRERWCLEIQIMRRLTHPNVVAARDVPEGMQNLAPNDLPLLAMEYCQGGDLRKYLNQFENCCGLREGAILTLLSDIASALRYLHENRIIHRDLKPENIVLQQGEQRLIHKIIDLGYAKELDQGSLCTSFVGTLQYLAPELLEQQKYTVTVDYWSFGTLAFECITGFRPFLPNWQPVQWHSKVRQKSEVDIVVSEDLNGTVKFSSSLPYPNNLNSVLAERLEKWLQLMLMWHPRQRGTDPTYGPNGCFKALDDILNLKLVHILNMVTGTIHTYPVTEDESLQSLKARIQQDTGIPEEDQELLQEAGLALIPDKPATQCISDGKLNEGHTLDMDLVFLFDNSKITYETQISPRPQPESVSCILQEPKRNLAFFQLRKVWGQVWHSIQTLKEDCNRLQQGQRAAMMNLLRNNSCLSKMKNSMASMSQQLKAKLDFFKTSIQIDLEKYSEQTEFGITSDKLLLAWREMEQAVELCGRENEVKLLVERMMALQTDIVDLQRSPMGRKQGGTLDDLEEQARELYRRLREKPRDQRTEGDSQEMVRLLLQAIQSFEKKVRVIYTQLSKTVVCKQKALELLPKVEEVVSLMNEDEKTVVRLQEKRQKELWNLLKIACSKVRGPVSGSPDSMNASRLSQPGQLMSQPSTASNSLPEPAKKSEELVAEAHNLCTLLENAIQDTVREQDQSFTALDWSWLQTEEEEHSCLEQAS
T40 sequence (O00141 60-431 S422D limits assumed): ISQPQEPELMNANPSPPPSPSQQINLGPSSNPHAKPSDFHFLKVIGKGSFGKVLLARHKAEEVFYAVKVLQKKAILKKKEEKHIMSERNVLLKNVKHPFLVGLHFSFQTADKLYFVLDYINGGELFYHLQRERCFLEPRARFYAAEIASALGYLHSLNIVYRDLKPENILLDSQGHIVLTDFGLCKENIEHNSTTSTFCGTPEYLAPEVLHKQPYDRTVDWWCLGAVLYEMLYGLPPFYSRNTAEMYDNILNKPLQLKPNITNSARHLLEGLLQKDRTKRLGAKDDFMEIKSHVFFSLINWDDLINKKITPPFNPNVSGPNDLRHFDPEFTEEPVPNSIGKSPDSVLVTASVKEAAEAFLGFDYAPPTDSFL
T36 sequence (P43250 whole entry): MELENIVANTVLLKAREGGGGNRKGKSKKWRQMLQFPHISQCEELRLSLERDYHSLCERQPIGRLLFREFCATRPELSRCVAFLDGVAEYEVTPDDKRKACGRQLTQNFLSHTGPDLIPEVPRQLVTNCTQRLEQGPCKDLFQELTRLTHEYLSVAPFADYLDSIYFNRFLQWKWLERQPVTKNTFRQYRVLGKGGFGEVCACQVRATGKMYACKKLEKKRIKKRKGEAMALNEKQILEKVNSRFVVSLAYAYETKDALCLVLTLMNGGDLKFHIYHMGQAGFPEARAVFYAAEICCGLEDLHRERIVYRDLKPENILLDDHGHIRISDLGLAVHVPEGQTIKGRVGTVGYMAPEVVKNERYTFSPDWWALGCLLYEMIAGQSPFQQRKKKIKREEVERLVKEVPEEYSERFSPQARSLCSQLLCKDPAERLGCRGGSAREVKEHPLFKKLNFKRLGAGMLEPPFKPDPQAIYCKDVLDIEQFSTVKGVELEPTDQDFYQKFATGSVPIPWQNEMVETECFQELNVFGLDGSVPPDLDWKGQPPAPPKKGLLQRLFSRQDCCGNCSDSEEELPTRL

`COCc1ccc2cccc(NC(=O)Nc3c(C)c(-c4cnn(C)c4)nn3-c3ccccc3)c2c1` [Example 16, 1-(1′,4-dimethyl-1-phenyl-1H,1′H-[3,4′-bipyrazol]-5-yl)-3-(7-(methoxymethyl)naphthalen-1-yl)urea] was tested, and the “Avg POC” value (MSK1) was 132 POC, the “Avg POC” value (FGFR2) was 110 POC and the “Avg POC” value (ITK) was 131 POC. The “Avg POC” value (CSK) was 132 POC, the “Avg POC” value (CLK2) was 135 POC and the “Avg POC” value (CAMK1d) was 134.5 POC. For the same molecule, the “Avg POC” value (PAK2) was 121 POC, the “Avg POC” value (CAMK1) was 106 POC and the “Avg POC” value (TBK1) was 121.5 POC. For the same molecule, the “Avg POC” value (AKT3) was 130.5 POC, the “Avg POC” value (WNK3) was 122 POC and the “Avg POC” value (IKKalpha) was 138.5 POC. The “Avg POC” value (CDK2/cyclinA) was 136 POC, the “Avg POC” value (NEK3) was 122 POC and the “Avg POC” value (Fer) was 122 POC. The “Avg POC” value (PKCdelta) was 111.5 POC, the “Avg POC” value (Mer) was 116 POC and the “Avg POC” value (EphA2) was 123.5 POC. The “Avg POC” value (AKT2) was 217.5 POC, the “Avg POC” value (TrkB) was 9 POC and the “Avg POC” value (AMPK(A1/B1/G1)) was 134.5 POC. The “Avg POC” value (Met) was 130 POC, the “Avg POC” value (Txk) was 131 POC and the “Avg POC” value (DYRK2) was 99 POC. For the same molecule, the “Avg POC” value (PDGFRalpha) was 132 POC, the “Avg POC” value (MKNK2) was 118.5 POC and the “Avg POC” value (JNK1alpha1) was 111.5 POC. For the same molecule, the “Avg POC” value (Fms) was 125.5 POC, the “Avg POC” value (IKKbeta) was 130.5 POC and the “Avg POC” value (SGK2) was 147.5 POC. For the same molecule, the “Avg POC” value (CDK2/cyclinE) was 143 POC, the “Avg POC” value (Ret) was 115 POC and the “Avg POC” value (IR Activated) was 102.5 POC. The “Avg POC” value (TAO3) was 89.5 POC, the “Avg POC” value (TNK2) was 115 POC and the “Avg POC” value (GRK6) was 106 POC. The “Avg POC” value (CDK3/cyclinE) was 125 POC, the “Avg POC” value (Flt4) was 108 POC and the “Avg POC” value (MAPKAP-K3) was 126.5 POC. The “Avg POC” value (SGK1) was 169.5 POC and the “Avg POC” value (MSK2) was 107 POC.
